According to patent US7527808B2, “Amorphous cefditoren pivoxil composition and process for producing the same” (Meiji Seika Kaisha, Ltd., priority 2001, dated 2009):

Columns and labels:
[1] = Test 4: dissolution test (Japanese Pharmacopoeia Method 2) in second fluid; type: physicochemical; conditions: second fluid of the Japanese Pharmacopoeia; dissolved cefditoren pivoxil determined at 272 nm
Experimental: For each sample shown in Table 2, a dissolution test (see The Japanese Pharmacopoeia, Fourteenth Edition, Part I, General Tests “56. Dissolution test, Method 2”) was carried out in a second fluid specified in the Japanese Pharmacopoeia (a fluid prepared by adding 118 mL of a 0.2 mol/L sodium hydroxide reagent solution and water to 250 mL of a 0.2 mol/L potassium dihydogenphosphate reagent solution; the amount of the water being a sufficient amount to bring the total volume of the fluid to 1,000 mL). The fluid with the sample dissolved therein was sampled at fixed intervals of time and was filtered through a glass filter G-4 manufactured by TOYAMA SANGYO Co., Ltd., and the amount of dissolved cefditoren pivoxil was then quantitatively determined at a measuring wavelength of 272 nm with a spectrophotometer (UV-160, manufactured by Shimadzu Seisakusho Ltd.

[2] = Test 2: thermal analysis, stability against heat by differential scanning calorimeter; type: physicochemical; conditions: temperature rise rate 10° C./min
Text: The samples shown in Table 2 were examined for stability against heat with a differential scanning calorimeter (model DSC 3100, manufactured by MAC Science).

Structure (SMILES)	dissolvability (dissolution curve of cefditoren pivoxil) [1]	exothermic peak in DSC curve (transfer to a crystalline state) [2]
CO/N=C(\C(=O)N[C@@H]1C(=O)N2C(C(=O)OCOC(=O)C(C)(C)C)=C(/C=C\c3scnc3C)CS[C@H]12)c1csc(N)n1 [crystalline cefditoren pivoxil, (−)-(6R,7R)-7-[(Z)-2-(2-aminothiazol-4-yl)-2-methoxyiminoacetamido]-3-[(Z)-2-(4-methylthiazol-5-yl)ethenyl]-8-oxo-5-thia-1-azabicyclo[4.2.0]oct-2-ene-2-carboxylic acid 2,2-dimethylpropionyloxymethyl ester]	substantially no difference in dissolvability	–
CO/N=C(\C(=O)N[C@@H]1C(=O)N2C(C(=O)OCOC(=O)C(C)(C)C)=C(/C=C\c3scnc3C)CS[C@H]12)c1csc(N)n1 [amorphous cefditoren pivoxil, (−)-(6R,7R)-7-[(Z)-2-(2-aminothiazol-4-yl)-2-methoxyiminoacetamido]-3-[(Z)-2-(4-methylthiazol-5-yl)ethenyl]-8-oxo-5-thia-1-azabicyclo[4.2.0]oct-2-ene-2-carboxylic acid 2,2-dimethylpropionyloxymethyl ester]	–	around 140 °C
